Measured values reported in patent US7300664B1, “Vaginally administrable progesterone-containing tablets and method for preparing same” (Ferring B.V., priority 1998, dated 2007).
Read-outs that look alike come from different tables or passages of the source.

Legend:
[1] = Single-dose pharmacokinetics of progesterone vaginal tablets in post-menopausal women (Example 4, day 0); assay type: in vivo; conditions: single vaginal tablet, mean; for Tmax / half-life: female, human, serum; for half-life: read-out: T1/2 (mean elimination half-life) (converted); for Cmax: read-out: Cmax (maximal serum concentration)
Method: The pharmacokinetics and clinical use of tablets prepared in accordance with the invention were evaluated as follows: 50 healthy, post-menopausal women with intact uteri, 39 of whom had suffered premature menopause and 11 who were truly postmenopausal, all of whom were undergoing hormone replacement therapy (HRT), submitted blood samples for determination of baseline profiles of hormones (progesterone and other hormones) and other biochemicals (bilirubin, cholesterol, etc.). The blood samples were taken at 8 AM on the first day of the evaluation (day 0) in a fasting state, by intravenous indwelling catheter which was introduced into the cubital vein. Non-estrogen primed postmenopausal women were chosen in order to avoid confusion with endogenous progesterone secretion and estrogen influence on vaginal mucosa absorption (Villanueva et al., Fertil. Steril. 35 (1981), 433-437). The women then self-administered the progesterone vaginal tablet using a plastic applicator and lay down for 20 minutes. Repeat blood samples for progesterone concentration were withdrawn 0.5, 1, 2, 4, 6, 8, 10, 12 and 24 hours after the vaginal insertion. Blood was allowed to clot at room temperature for 1 hour, after which the serum was separated by centrifugation and stored at −20° C. until analysis. Of the 50 women who participated in the evaluation, 20 were allocated tablets containing 50 mg progesterone, and the remainder of the participants received tablets containing 100 mg progesterone. […] The mean […] (Tmax), mean elimination half-life (T1/2), maximal serum concentration (Cmax), and AUC (area under the curve, i.e. total amount of plasma progesterone observed) derived from the blood samples taken on day 0 of the evaluation are summarized in Table II.

[2] = Clinical use: twice-daily vaginal tablets, blood samples on days 14 and 30 (Example 4); assay type: in vivo, women; conditions: female, human, serum, other: vaginal, fasting morning sample, read-out: Blood Progesterone levels
Method: The pharmacokinetics and clinical use of tablets prepared in accordance with the invention were evaluated as follows: 50 healthy, post-menopausal women with intact uteri, 39 of whom had suffered premature menopause and 11 who were truly postmenopausal, all of whom were undergoing hormone replacement therapy (HRT), submitted blood samples for determination of baseline profiles of hormones (progesterone and other hormones) and other biochemicals (bilirubin, cholesterol, etc.). The blood samples were taken at 8 AM on the first day of the evaluation (day 0) in a fasting state, by intravenous indwelling catheter which was introduced into the cubital vein. Non-estrogen primed postmenopausal women were chosen in order to avoid confusion with endogenous progesterone secretion and estrogen influence on vaginal mucosa absorption (Villanueva et al., Fertil. Steril. 35 (1981), 433-437). To evaluate clinical use of the drug, the women were instructed to insert tablets prepared in accordance with the present invention, containing the same dose as administered on day 0, twice daily starting on day 1, and to […] for 20 minutes after each insertion. On days 14 and 30, blood samples for comparison with the baseline were drawn in the morning while the subjects were in a fasting state. Of the 50 women who participated in the evaluation, 20 were allocated tablets containing 50 mg progesterone, and the remainder of the participants received tablets containing 100 mg progesterone.

[3] = 50 mg progesterone, 20 subjects
[4] = 100 mg progesterone, 30 subjects

Tmax [1, 3]: 6.1 h | half-life [1, 3]: 13.2 h | Tmax [1, 4]: 6.4 h | half-life [1, 4]: 13.7 h | AUC (area under the curve) [1, 3]: 154.15 nmol/h/L | Cmax [1, 3]: 20.4 nM | Cmax ([1]; 100 mg progesterone, 30 subjects, P = 0.0004): 31.6 nM | AUC (area under the curve) ([1]; 100 mg progesterone, 30 subjects, P = 0.001): 247.61 nmol/h/L | concentration at 14 day ([2]; 50 mg twice daily, Day 14, 50 mg tablet twice daily, 20 subjects): 17.5 nM | concentration at 30 day ([2]; 50 mg twice daily, Day 30, 50 mg tablet twice daily, 20 subjects): 17.4 nM | concentration at 14 day ([2]; 100 mg twice daily, Day 14, 100 mg tablet twice daily, 30 subjects): 26.1 nM | concentration at 30 day ([2]; 100 mg twice daily, Day 30, 100 mg tablet twice daily, 30 subjects): 21.4 nM
Structure (SMILES): CC(=O)[C@H]1CC[C@H]2[C@@H]3CCC4=CC(=O)CC[C@]4(C)[C@H]3CC[C@]12C [Progesterone, progesterone]
